The results in this text go back to article PMC4574608, “Genomic profiling of a Hepatocyte growth factor-dependent signature for MET-targeted therapy in glioblastoma” (Journal of Translational Medicine, 2015).

Entries after “also recorded” stand apart in the source; their conditions may differ.

The subject of one assay is U87MG cells. As to the kind of experiment: 3D cell invasion assay (spheroid dispersal on Matrigel). It counts as cell-based, human. The settings on record: at 50 μM, day 3. Here is the method: U87MG cells were first grown in 1 % soft agar (Sigma) for 7 days to form spheroids. Each spheroid was then selected and placed onto Matrigel in a well to attach overnight (day 0), followed by treatment with DMSO or serially diluted compounds. Images were taken after an additional 3 days under a light microscope. Triplicates were tested for each concentration.

A further assay concerns KCI-10-40X1 tumors. As to the kind of experiment: EGFRamp PDX therapeutic efficacy. The format is in vivo, mouse. Here is the method: (§1) All animal studies were approved by the IACUC of Van Andel Research Institute. Subcutaneous and orthotopic tumor initiation were performed as previously described. The orthotopic tumor growth was measured by bioluminescence signal intensity (BLI) using a small animal optical imager AMI 1000 (Spectral Instruments Imaging, LLC). Dosing with V-4084 and/or erlotinib was delivered once daily by oral gavage for 3 weeks. Vehicles used were 0.5 % MC 400 with 0.05 % Tween 80 (for V-4084) and with 0.5 % (w/v) methyl cellulose (for erlotinib). To determine the effectiveness of treatment, the average tumor size of each group from the last measurement was analyzed with Student’s t test (p < 0.05).
(§2) To induce acquired resistance, KCI-10-40X1cells were inoculated into nude mice subcutaneously followed by continuous erlotinib treatment (75–100 mg/kg). […] The same transplant procedure was serially repeated four times to establish the tumor model adaptive to erlotinib treatment (KCI-10-40X1/erl). […] A combination of V-4084 and erlotinib, however, retarded KCI-10-40X1/erl tumor growth (Fig. 5E).

A further assay concerns G91 PDX model. The experiment in a line: GBM PDX therapeutic efficacy. It counts as in vivo, mouse. The settings on record: G91, no HGF expression, single agent. Here is the method: as §1
The test system of a further assay is G116 PDX model. As to the kind of experiment: GBM PDX therapeutic efficacy. It counts as in vivo, mouse. As to conditions: G116, highest HGF expression, single agent. Here is the method: as §1
For the next assay, the system named is KCI-10-40X1/erl tumors. As to the kind of experiment: Erlotinib-resistant EGFRamp PDX therapeutic efficacy. The settings on record: continued erlotinib treatment, discontinuing accelerated growth. The format is in vivo, mouse. Here is the method: as §1, §2

Consider `Cn1nnc2c(C(N)=O)ncn2c1=O` [TMZ, Temozolomide], for which the “U87MG cell dispersal (anti-migratory activity)” value in the assay on U87MG cells is reported as “failed to show any anti-migratory activity”.

`C#Cc1cccc(Nc2ncnc3cc(OCCOC)c(OCCOC)cc23)c1` [erlotinib]: in the assay on KCI-10-40X1 tumors (KCI-10-40X1, continuous erlotinib 75–100 mg/kg), the “Time of continuous treatment until tumors regrow (start of acquired resistance)” value is listed as 5 weeks. Moreover, in the assay on KCI-10-40X1 tumors (KCI-10-40X1 subcutaneous in nude mice, erlotinib 75 mg/kg, first week), the “Tumor response to treatment” value was “high sensitivity; also recorded: significant tumor regression”. The “PDX tumor response to treatment” value is on record as “exactly the opposite” in the assay with G91 PDX model and “no effect” in the assay on G116 PDX model. The Tumor growth result in the assay on KCI-10-40X1/erl tumors was “grow while on erlotinib treatment”.
